In ChEMBL document CHEMBL4402524, “Identification of Novel Resorcinol Amide Derivatives as Potent and Specific Pyruvate Dehydrogenase Kinase (PDHK) Inhibitors” (J Med Chem, 2019):

Assays:
[1] = target: T1, [Pyruvate dehydrogenase (acetyl-transferring)] kinase isozyme 4, mitochondrial (Homo sapiens, UniProt Q16654); experiment: Inhibition of PDHK4 (unknown origin) by radiometric biochemical kinase assay
[2] = target: T2, [Pyruvate dehydrogenase (acetyl-transferring)] kinase isozyme 2, mitochondrial (Homo sapiens, UniProt Q15119); experiment: Inhibition of PDHK2 (unknown origin) by radiometric biochemical kinase assay
[3] = target: [Pyruvate dehydrogenase (acetyl-transferring)] kinase isozyme 3, mitochondrial (Homo sapiens, UniProt Q15120); experiment: Inhibition of PDHK3 (unknown origin) by radiometric biochemical kinase assay
Chain of [Pyruvate dehydrogenase (acetyl-transferring)] kinase isozyme 3, mitochondrial (Q15120 whole entry): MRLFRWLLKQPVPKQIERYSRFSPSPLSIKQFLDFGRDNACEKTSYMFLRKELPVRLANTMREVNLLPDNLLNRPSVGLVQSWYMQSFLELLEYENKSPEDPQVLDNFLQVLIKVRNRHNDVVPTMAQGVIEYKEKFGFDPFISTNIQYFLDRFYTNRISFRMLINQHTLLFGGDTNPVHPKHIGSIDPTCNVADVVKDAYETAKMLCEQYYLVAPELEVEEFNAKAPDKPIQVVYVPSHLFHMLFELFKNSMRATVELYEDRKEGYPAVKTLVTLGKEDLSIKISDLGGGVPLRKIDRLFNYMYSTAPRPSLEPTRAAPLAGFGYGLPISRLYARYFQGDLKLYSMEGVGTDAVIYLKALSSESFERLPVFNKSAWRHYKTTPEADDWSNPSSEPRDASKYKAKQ

[4] = target: [Pyruvate dehydrogenase (acetyl-transferring)] kinase isozyme 1, mitochondrial (Homo sapiens, UniProt Q15118); experiment: Inhibition of PDHK1 (unknown origin) by radiometric biochemical kinase assay
Chain of [Pyruvate dehydrogenase (acetyl-transferring)] kinase isozyme 1, mitochondrial (Q15118 whole entry): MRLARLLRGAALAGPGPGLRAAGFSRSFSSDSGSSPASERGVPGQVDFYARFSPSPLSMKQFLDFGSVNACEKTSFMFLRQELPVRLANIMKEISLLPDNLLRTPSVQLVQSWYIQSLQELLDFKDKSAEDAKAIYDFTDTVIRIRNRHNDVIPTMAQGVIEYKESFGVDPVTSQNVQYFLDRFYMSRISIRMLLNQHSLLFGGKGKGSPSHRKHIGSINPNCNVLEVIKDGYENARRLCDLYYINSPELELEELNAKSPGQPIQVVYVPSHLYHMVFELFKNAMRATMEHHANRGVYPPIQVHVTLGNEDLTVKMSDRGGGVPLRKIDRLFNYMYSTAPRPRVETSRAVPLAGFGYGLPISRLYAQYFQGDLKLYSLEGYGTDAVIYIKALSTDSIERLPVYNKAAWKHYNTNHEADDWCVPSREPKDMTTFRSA

DU-145 [5] = experiment: Antiproliferative activity against p53 deficient human DU145 cells incubated for 72 hrs by CellTiter-Glo assay; assay type: functional; details: DU-145, 72 h
Heat shock protein HSP90 = Heat shock protein HSP90 (Homo sapiens, UniProt P07900+P08238); experiment: Inhibition of HSP90 (unknown origin); assay type: protein assay
NCI-H1299 [6] = experiment: Antiproliferative activity against p53 deficient human H1299 cells incubated for 72 hrs by CellTiter-Glo assay; assay type: functional; details: NCI-H1299, 72 h
Cytochrome P450 3A4 = Cytochrome P450 3A4 (Homo sapiens, UniProt P08684); experiment: Inhibition of CYP3A4 (unknown origin); assay type: ADME
Chain of Cytochrome P450 3A4 (P08684 whole entry): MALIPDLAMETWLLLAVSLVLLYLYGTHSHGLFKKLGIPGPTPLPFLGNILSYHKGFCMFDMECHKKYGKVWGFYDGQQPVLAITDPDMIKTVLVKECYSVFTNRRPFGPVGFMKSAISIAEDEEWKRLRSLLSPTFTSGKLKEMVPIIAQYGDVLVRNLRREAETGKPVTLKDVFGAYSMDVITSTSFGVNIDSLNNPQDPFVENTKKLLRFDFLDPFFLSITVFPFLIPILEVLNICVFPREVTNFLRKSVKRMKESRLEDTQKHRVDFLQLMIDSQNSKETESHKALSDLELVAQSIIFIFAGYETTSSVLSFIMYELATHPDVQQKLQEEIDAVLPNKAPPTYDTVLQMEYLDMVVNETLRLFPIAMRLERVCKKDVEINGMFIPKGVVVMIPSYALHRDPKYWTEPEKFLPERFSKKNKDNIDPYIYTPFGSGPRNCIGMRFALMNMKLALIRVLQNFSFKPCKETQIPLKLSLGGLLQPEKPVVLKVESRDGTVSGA

Cytochrome P450 2C19 = Cytochrome P450 2C19 (Homo sapiens, UniProt P33261); experiment: Inhibition of CYP2C19 (unknown origin); assay type: ADME
Chain of Cytochrome P450 2C19 (P33261 whole entry): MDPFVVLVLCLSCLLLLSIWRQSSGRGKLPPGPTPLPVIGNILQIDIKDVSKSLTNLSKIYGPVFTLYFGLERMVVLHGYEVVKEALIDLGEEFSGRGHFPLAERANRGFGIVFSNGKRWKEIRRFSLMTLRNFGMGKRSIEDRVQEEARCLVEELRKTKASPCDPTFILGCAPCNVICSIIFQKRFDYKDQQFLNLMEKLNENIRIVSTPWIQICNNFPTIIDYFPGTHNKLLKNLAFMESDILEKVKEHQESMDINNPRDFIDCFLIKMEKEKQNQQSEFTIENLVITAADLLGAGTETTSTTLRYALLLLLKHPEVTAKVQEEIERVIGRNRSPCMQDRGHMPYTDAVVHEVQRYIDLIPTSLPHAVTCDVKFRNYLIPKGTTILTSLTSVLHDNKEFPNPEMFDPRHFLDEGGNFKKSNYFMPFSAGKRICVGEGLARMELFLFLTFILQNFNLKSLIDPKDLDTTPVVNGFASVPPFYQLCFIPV

Cytochrome P450 2D6 = Cytochrome P450 2D6 (Homo sapiens, UniProt P10635); experiment: Inhibition of CYP2D6 (unknown origin); assay type: ADME
Chain of Cytochrome P450 2D6 (P10635 whole entry): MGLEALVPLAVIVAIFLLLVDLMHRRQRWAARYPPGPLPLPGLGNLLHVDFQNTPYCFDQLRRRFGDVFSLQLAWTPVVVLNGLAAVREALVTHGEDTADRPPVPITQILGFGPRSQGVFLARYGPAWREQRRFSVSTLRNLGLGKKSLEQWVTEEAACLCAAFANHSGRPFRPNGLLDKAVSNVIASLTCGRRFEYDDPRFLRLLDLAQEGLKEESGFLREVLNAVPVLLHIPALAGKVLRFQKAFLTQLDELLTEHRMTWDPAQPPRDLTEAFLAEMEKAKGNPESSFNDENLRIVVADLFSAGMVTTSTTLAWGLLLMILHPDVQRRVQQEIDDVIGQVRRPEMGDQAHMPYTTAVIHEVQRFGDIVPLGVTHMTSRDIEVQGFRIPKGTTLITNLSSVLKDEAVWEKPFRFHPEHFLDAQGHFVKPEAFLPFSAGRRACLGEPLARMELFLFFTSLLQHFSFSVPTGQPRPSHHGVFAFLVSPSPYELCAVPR

Cytochrome P450 2C9 = Cytochrome P450 2C9 (Homo sapiens, UniProt P11712); experiment: Inhibition of CYP2C9 (unknown origin); assay type: ADME
Chain of Cytochrome P450 2C9 (P11712 whole entry): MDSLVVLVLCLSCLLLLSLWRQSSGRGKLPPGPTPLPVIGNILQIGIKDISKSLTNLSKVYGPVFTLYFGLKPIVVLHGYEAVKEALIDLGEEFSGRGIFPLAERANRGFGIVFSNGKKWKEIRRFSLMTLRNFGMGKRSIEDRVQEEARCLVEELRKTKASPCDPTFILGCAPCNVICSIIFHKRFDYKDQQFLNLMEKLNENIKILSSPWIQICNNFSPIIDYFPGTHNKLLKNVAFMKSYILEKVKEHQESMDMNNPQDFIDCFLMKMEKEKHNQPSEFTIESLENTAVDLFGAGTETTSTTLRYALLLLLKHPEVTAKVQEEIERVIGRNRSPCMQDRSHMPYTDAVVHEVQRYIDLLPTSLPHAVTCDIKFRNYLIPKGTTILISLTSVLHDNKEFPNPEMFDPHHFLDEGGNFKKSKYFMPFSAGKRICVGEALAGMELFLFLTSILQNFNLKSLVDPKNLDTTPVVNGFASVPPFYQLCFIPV

[7] = target: T1, [Pyruvate dehydrogenase (acetyl-transferring)] kinase isozyme 4, mitochondrial; experiment: Inhibition of PDHK4 (unknown origin) assessed as reduction in NAD measured for 30 mins
[8] = target: T2, [Pyruvate dehydrogenase (acetyl-transferring)] kinase isozyme 2, mitochondrial; experiment: Inhibition of PDHK2 (unknown origin) assessed as reduction in NAD measured for 30 mins
Cytochrome P450 1A2 = target: T3, Cytochrome P450 1A2 (Homo sapiens, UniProt P05177); experiment: Inhibition of CYP1A2 (unknown origin); assay type: ADME
T3 sequence (P05177 whole entry): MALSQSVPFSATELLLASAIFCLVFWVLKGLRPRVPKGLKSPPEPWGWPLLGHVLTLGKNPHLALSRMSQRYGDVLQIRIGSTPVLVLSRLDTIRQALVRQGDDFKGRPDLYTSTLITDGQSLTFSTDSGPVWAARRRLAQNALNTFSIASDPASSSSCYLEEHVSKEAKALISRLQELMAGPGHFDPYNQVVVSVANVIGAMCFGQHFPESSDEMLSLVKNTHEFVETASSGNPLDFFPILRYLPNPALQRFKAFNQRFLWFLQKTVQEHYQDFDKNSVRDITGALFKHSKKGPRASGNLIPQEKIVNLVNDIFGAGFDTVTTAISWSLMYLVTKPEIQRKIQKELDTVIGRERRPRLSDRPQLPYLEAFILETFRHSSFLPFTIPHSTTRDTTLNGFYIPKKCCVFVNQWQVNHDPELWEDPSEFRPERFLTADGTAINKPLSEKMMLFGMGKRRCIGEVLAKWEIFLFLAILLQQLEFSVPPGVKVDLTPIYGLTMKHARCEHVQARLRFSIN

NCI-H1299 [9] = experiment: Synergistic antiproliferative activity against human H1299 cells at 20 uM incubated for 72 hrs in presence of satra-platin by CellTiter-Glo assay relative to control; assay type: functional; details: NCI-H1299, 72 h
NCI-H1299 [10] = experiment: Antiproliferative activity against human H1299 cells transfected with control siRNA at 10 uM incubated for 48 hrs in by CellTiter-Glo assay relative to control; assay type: functional
NCI-H1299 [11] = experiment: Induction of apoptosis in human H1299 cells assessed as increase in apoptotic cells at 30 uM incubated for 48 hrs by FITC Annexin-V and PI staining based flow cytometric analysis relative to control; assay type: functional
NCI-H1299 [12] = experiment: Antiproliferative activity against PDHK1/2 double knockdown human H1299 cells transfected with PDHK1/2 siRNA at 10 uM incubated for 48 hrs by CellTiter-Glo assay relative to control; assay type: functional
NCI-H1299 [13] = experiment: Antiproliferative activity against p53 deficient human H1299 cells at 20 uM incubated for 72 hrs by CellTiter-Glo assay relative to control; assay type: functional
NCI-H1299 [14] = experiment: Synergistic induction of apoptosis in human H1299 cells assessed as increase in apoptotic cells at 10 uM incubated for 48 hrs in presence of satra-platin by FITC Annexin-V and PI staining based flow cytometric analysis relative to control; assay type: functional
NCI-H1299 [15] = experiment: Inhibition of anchorage-independent colony formation in human H1299 cells at 20 uM incubated for 14 days by p iodonitrotetrazolium violet staining based method relative to control; assay type: functional; details: NCI-H1299, 336 h
DU-145 [16] = experiment: Induction of apoptosis in human DU145 cells assessed as increase in apoptotic cells at 30 uM incubated for 48 hrs by FITC Annexin-V and PI staining based flow cytometric analysis relative to control; assay type: functional

T1 sequence (Q16654 whole entry): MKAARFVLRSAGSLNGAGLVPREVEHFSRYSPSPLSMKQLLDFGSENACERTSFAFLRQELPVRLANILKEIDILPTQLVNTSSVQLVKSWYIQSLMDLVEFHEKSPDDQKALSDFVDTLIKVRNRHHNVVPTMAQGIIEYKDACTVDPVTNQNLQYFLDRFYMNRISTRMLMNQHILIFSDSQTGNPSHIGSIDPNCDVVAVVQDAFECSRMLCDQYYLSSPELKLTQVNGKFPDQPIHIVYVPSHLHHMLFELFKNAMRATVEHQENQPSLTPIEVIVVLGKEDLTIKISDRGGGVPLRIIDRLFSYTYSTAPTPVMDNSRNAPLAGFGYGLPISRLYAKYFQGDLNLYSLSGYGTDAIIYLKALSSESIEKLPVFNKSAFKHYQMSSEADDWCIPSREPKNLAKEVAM

| Structure (SMILES) | IC50 [1] | IC50 [2] | IC50 [3] | IC50 [4] | GI50 (DU-145 [5]) | GI50 (NCI-H1299 [6]) | also measured |
| --- | --- | --- | --- | --- | --- | --- | --- |
| CC(=O)Nc1ccc(CN(C(=O)c2ccc(O)cc2O)c2ccc(C(=O)NCCO)cc2)cc1 | 12300 nM | 9910 nM | – | – | – | – | – |
| CC(=O)Nc1ccc(CN(C(=O)c2ccc(O)cc2O)c2ccc(C(=O)O)cc2)cc1 | 4670 nM | 7220 nM | – | – | – | – | – |
| CC(=O)Nc1ccc(CN(C(=O)c2ccc(O)cc2O)c2ccc(C(=O)N3CCCCC3)cc2)cc1 | 1980 nM | 1620 nM | – | – | – | – | – |
| Cc1ccc(CN(C(=O)c2ccc(O)cc2O)c2ccc(C(=O)N(C)C)cc2)o1 | 52 nM | 252 nM | 255 nM | 20 nM | – | – | – |
| CN(C)C(=O)c1ccc(N(Cc2ccccc2)C(=O)c2ccc(O)cc2O)cc1 | 66 nM | 206 nM | – | 109 nM | – | – | – |
| CN(C)C(=O)c1ccc(N(Cc2ncc(Br)s2)C(=O)c2ccc(O)cc2O)cc1 | 20 nM | 64 nM | 64 nM | 20 nM | 40800 nM | 60200 nM | IC50 (Heat shock protein HSP90): 6000 nM |
| CN(C)C(=O)c1ccc(N(Cc2cnc(Br)s2)C(=O)c2ccc(O)cc2O)cc1 | 87 nM | 132 nM | 90 nM | 24 nM | 18900 nM | 32200 nM | – |
| CN(C)C(=O)c1ccc(N(Cc2ccc(F)cc2)C(=O)c2ccc(O)cc2)cc1 | 390 nM | 2040 nM | – | – | – | – | – |
| CC(=O)Nc1ccc(CN(C(=O)c2ccc(O)cc2O)c2ccc(C(=O)N3CCOCC3)cc2)cc1 | 5790 nM | 2660 nM | – | – | – | – | – |
| CN(C)C(=O)c1ccc(N(Cc2ccc([N+](=O)[O-])cc2)C(=O)c2ccc(O)cc2O)cc1 | 99 nM | 110 nM | – | – | 44500 nM | 97100 nM | – |
| CN(C)C(=O)c1ccc(N(Cc2ccc(O)cc2)C(=O)c2ccc(O)cc2O)cc1 | 34 nM | 150 nM | 136 nM | 113 nM | 3500 nM | 4900 nM | IC50 (Cytochrome P450 3A4): 6470 nM; IC50 (Cytochrome P450 2C19): > 20000 nM; IC50 (Heat shock protein HSP90): > 10000 nM; IC50 (Cytochrome P450 2D6): > 20000 nM; IC50 (Cytochrome P450 2C9): 13400 nM; IC50 [7]: 1310 nM; IC50 [8]: 1460 nM; IC50 (Cytochrome P450 1A2): > 20000 nM |
| CN(C)C(=O)c1ccc(N(Cc2ccc(Cl)o2)C(=O)c2ccc(O)cc2O)cc1 | 82 nM | 193 nM | 181 nM | 24 nM | 29900 nM | 30000 nM | – |
| CN(C)C(=O)c1ccc(N(Cc2cc(Br)cs2)C(=O)c2ccc(O)cc2O)cc1 | 5 nM | 8 nM | 80 nM | 9 nM | 41900 nM | 51600 nM | IC50 (Cytochrome P450 3A4): < 1000 nM; IC50 (Cytochrome P450 2C19): 7800 nM; IC50 (Heat shock protein HSP90): 5790 nM; IC50 (Cytochrome P450 2D6): > 20000 nM; IC50 (Cytochrome P450 2C9): 18000 nM; IC50 (Cytochrome P450 1A2): > 20000 nM |
| CN(C)C(=O)c1ccc(N(Cc2ccc(C#N)cc2)C(=O)c2ccc(O)cc2O)cc1 | 399 nM | 302 nM | 461 nM | 151 nM | – | – | – |
| CN(C)C(=O)c1ccc(N(Cc2ccc(Cl)cc2)C(=O)c2ccc(O)cc2O)cc1 | 169 nM | 126 nM | – | – | 51000 nM | 31500 nM | – |
| CN(C)C(=O)c1ccc(N(CC2CCCCC2)C(=O)c2ccc(O)cc2O)cc1 | 775 nM | 184 nM | 858 nM | 140 nM | – | – | – |

| Structure (SMILES) | IC50 [1] | IC50 [2] | IC50 [3] | IC50 [4] | GI50 (DU-145 [5]) | GI50 (NCI-H1299 [6]) | also measured |
| --- | --- | --- | --- | --- | --- | --- | --- |
| Cc1cnc(Cl)nc1-c1ccc(N(Cc2ccc(CNC(=O)C(F)F)cc2)C(=O)c2ccc(O)cc2O)cc1 | – | – | – | – | > 50000 nM | > 50000 nM | IC50 (Heat shock protein HSP90): > 10000 nM |
| CN(C)C(=O)c1ccc(N(Cc2ccc(I)o2)C(=O)c2ccc(O)cc2O)cc1 | 11 nM | 98 nM | 5 nM | 14 nM | 15900 nM | 39200 nM | – |
| CN(C)C(=O)c1ccc(N(Cc2ccc(C(F)(F)F)cc2)C(=O)c2ccc(O)cc2O)cc1 | 273 nM | 140 nM | – | – | – | – | – |
| CNC(=O)c1ccc(N(Cc2ccc(NC(C)=O)cc2)C(=O)c2ccc(O)cc2O)cc1 | 7840 nM | 8590 nM | – | – | – | – | – |
| CN(C)C(=O)c1ccc(N(Cc2ccc(F)cc2)C(=O)c2ccc(O)cc2O)cc1 | 52 nM | 113 nM | 142 nM | 67 nM | 69700 nM | 57100 nM | IC50 (Heat shock protein HSP90): 5200 nM |
| CC(=O)Nc1ccc(CN(C(=O)c2ccc(O)cc2O)c2ccc(C(=O)NC3CC3)cc2)cc1 | 14800 nM | 1960 nM | – | – | – | – | – |
| CN(C)C(=O)c1ccc(N(Cc2ccc(C#N)s2)C(=O)c2ccc(O)cc2O)cc1 | 89 nM | 95 nM | 98 nM | 57 nM | 59800 nM | 107000 nM | – |
| CN(C)C(=O)c1ccc(N(Cc2ccc(F)cc2)C(=O)c2ccccc2O)cc1 | > 10000 nM | > 10000 nM | – | – | – | – | – |
| O=C(O)C(Cl)Cl [DICHLOROACETIC ACID] | – | – | – | – | – | – | GI50 (NCI-H1299 [9]): 8500 nM |
| CN(C)C(=O)c1ccc(N(CC(C)(C)C)C(=O)c2ccc(O)cc2O)cc1 | 5330 nM | 772 nM | – | – | – | – | – |
| CC(=O)Nc1ccc(CN(C(=O)c2ccc(O)cc2O)c2ccc(C(=O)N(C)C)cc2)cc1 | 311 nM | 503 nM | – | – | – | – | – |
| CC(=O)Nc1ccc(CN(C(=O)c2ccc(O)cc2O)c2ccc(C(=O)N3CCCC3)cc2)cc1 | 1810 nM | 1660 nM | – | – | – | – | – |
| CN(C)C(=O)c1ccc(N(Cc2ccco2)C(=O)c2ccc(O)cc2O)cc1 | 69 nM | 133 nM | 67 nM | 48 nM | 9000 nM | 7800 nM | IC50 (Heat shock protein HSP90): 770 nM; IC50 [7]: 580 nM; IC50 [8]: 1090 nM |
| CN(C)C(=O)c1ccc(N(Cc2ccc(Br)s2)C(=O)c2ccc(O)cc2O)cc1 | 8 nM | 18 nM | 90 nM | 42 nM | 42200 nM | 49800 nM | – |
| CN(C)C(=O)c1ccc(N(Cc2ccc3ccccc3c2)C(=O)c2ccc(O)cc2O)cc1 | 234 nM | 373 nM | – | – | – | – | – |
| CN(C)C(=O)c1ccc(N(Cc2ccc(Br)o2)C(=O)c2ccc(O)cc2O)cc1 | 13 nM | 10 nM | 59 nM | 36 nM | 10200 nM | 13400 nM | Activity (NCI-H1299 [10]): 50%; Activity (NCI-H1299 [11]): 24.8%; GI50 (NCI-H1299 [9]): 5500 nM; Activity (NCI-H1299 [12]): 32%; IC50 (Cytochrome P450 3A4): 1400 nM; IC50 (Cytochrome P450 2C19): 4300 nM; Activity (NCI-H1299 [13]): 70%; IC50 (Heat shock protein HSP90): 830 nM; Activity (NCI-H1299 [14]): 30 - 34%; inhibition at 20 µM (NCI-H1299 [15]): 100%; Activity (DU-145 [16]): 60%; IC50 (Cytochrome P450 2D6): > 20000 nM; IC50 (Cytochrome P450 2C9): > 20000 nM; IC50 [7]: 310 nM; IC50 [8]: 2090 nM; IC50 (Cytochrome P450 1A2): > 20000 nM |
